What was measured:
[1] = test system: HCV 1b-Con1 replicon; experiment: HCV 1b-Con1 replicon assay in the presence of 5% FBS; type: cell-based; details: Hepatitis C virus
[2] = test system: HCV 2a, 2b, 3a and 4a replicons; experiment: HCV 2a, 2b, 3a and 4a replicon assays in the absence of human plasma; type: cell-based
Method: The inhibitory effects of the compounds of the invention on HCV replication can be determined by measuring activity of the luciferase reporter gene. For example, replicon-containing cells can be seeded into 96 well plates at a density of 5000 cells per well in 100 μl DMEM containing 5% FBS. The following day compounds can be diluted in dimethyl sulfoxide (DMSO) to generate a 200× stock in a series of eight half-log dilutions. The dilution series can then be further diluted 100-fold in the medium containing 5% FBS. Medium with the inhibitor is added to the overnight cell culture plates already containing 100 μl of DMEM with 5% FBS. In assays measuring inhibitory activity in the presence of human plasma, the medium from the overnight cell culture plates can be replaced with DMEM containing 40% human plasma and 5% FBS. […] Luciferin solution (100 μl, Promega) can be added to each well, and luciferase activity can be measured with a Victor II luminometer (Perkin-Elmer). The percent inhibition of HCV RNA replication can be calculated for each compound concentration and the EC50 value can be calculated using nonlinear regression curve fitting to the 4-parameter logistic equation and GraphPal Prism 4 software.

[3] = AUC value (pharmacokinetics); details: in vivo

COC(=O)N[C@H](C(=O)N1CCC[C@H]1c1nc2cc([C@H]3CC[C@H](c4ccc5[nH]c([C@@H]6CCCN6C(=O)[C@@H](NC(=O)OC)C(C)C)nc5c4)N3c3cc(F)c(N4CCC(c5ccccc5)CC4)c(F)c3)ccc2[nH]1)C(C)C [Example 5.1, methyl {(2S)-1-[(2S)-2-{5-[(2R,5R)-1-[3,5-difluoro-4-(4-phenylpiperidin-1-yl)phenyl]-5-{2-[(2S)-1-{(2S)-2-[(methoxycarbonyl)amino]-3-methylbutanoyl}pyrrolidin-2-yl]-1H-benzimidazol-5-yl}pyrrolidin-2-yl]-1H-benzimidazol-2-yl}pyrrolidin-1-yl]-3-methyl-1-oxobutan-2-yl}carbamate]
EC50 [1]: < 0.1 nM
EC50 values, fold less than those of Example 4.25 [2]: at least 50 fold
AUC value, fold greater than that of Example 2.9 [3]: about 30 fold

Source: patent publication US20120220562A1, “Anti-Viral Compounds” (ABBOTT LABAORATORIES, priority 2011, published 2012)
